Assay results reported in patent publication US10206394B2, “Herbicidal compounds” (Syngenta Participations AG, priority 2014, dated 2019).
Like-named read-outs stand apart in the source and are kept apart here.

Key:
Format in all cases: in vivo
[1] = system: Winter Wheat variety 'Hereward'; assay: Glasshouse assay for crop safety, post-emergence, +/- safener cloquintocet-mexyl (CQC), percentage phytotoxicity; conditions: 250 g/ha, evaluated after 13 days, 100=total damage, 0=no damage; for Post-emergence Crop Selectivity, percentage phytotoxicity, Wheat +CQC: with safener cloquintocet-mexyl (CQC) seed treatment 0.5 g/kg seed; for Post-emergence Crop Selectivity, percentage phytotoxicity, Wheat − CQC: without safener cloquintocet-mexyl (CQC)
Source text: Test—Glasshouse Assay for Crop Safety.
Seeds of the Winter Wheat variety ‘Hereward’ were seed treated with a wettable powder formulation of the cereal herbicide safener, cloquintocet mexyl, at a rate of 0.5 grams per kilogram of dry seed prior to the initiation of glasshouse testing. Three seeds were sown per 1.5 inch plastic pot into a sandy loam soil at a depth of 1 cm, 8 days prior to application of the test compounds and was watered and grown under controlled conditions in a glasshouse (at 24/16° C., day/night; 14 hours light; 65% humidity). The plants were sprayed Post-emergence with an aqueous spray solution derived from the formulation of the technical active ingredient in acetone/water (50:50) solution containing 0.5% Tween 20 (polyoxyethelyene sorbitan monolaurate, CAS RN 9005-64-5).
The test plants were then grown in a glasshouse under controlled conditions (at 24/16° C., day/night; 14 hours light; 65% humidity) and watered twice daily. After 13 days for pre and post-emergence, the test was evaluated (100=total damage to plant; 0=no damage to plant).

[2] = system: Avena fatua (AVEFA); assay: Glasshouse assay for herbicidal activity (pre- and post-emergence), percentage phytotoxicity; conditions: Avena fatua
Procedure, shortened: (§1)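 Sow seed in standard soil in pots; apply test herbicide after 1 day (PRE) or about 12 days (POST). Grow on in the glasshouse, watering twice daily, cool-season species at 20/16 °C and warm-season at 24/18 °C. Score visible damage (0–100%) at 20 or 15 DAA respectively.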

[3] = system: Echinochloa crus-galli (ECHCG); assay: as above; conditions: Echinochloa crus-galli
Procedure, shortened: as §1

[4] = system: Lolium perenne (LOLPE); assay: as above; conditions: Lolium perenne
Procedure, shortened: as §1

[5] = system: Alopecurus myosuroides (ALOMY); assay: as above; conditions: Alopecurus myosuroides
Procedure, shortened: as §1

[6] = post-emergence, 360 h, Rate 250 g/ha, post-emergence, assessed visually 15 DAA, 100%=total damage, 0%=no damage, read-out: Post-emergence herbicidal activity (percentage phytotoxicity) AVEFA POST
[7] = pre-emergence, 480 h, Rate 250 g/ha, pre-emergence, assessed visually 20 DAA, 100%=total damage, 0%=no damage, read-out: Pre-emergence herbicidal activity (percentage phytotoxicity) AVEFA PRE
[8] = post-emergence, 360 h, Rate 250 g/ha, post-emergence, assessed visually 15 DAA, 100%=total damage, 0%=no damage, read-out: Post-emergence herbicidal activity (percentage phytotoxicity) ECHCG POST
[9] = pre-emergence, 480 h, Rate 250 g/ha, pre-emergence, assessed visually 20 DAA, 100%=total damage, 0%=no damage, read-out: Pre-emergence herbicidal activity (percentage phytotoxicity) ECHCG PRE
[10] = post-emergence, 360 h, Rate 250 g/ha, post-emergence, assessed visually 15 DAA, 100%=total damage, 0%=no damage, read-out: Post-emergence herbicidal activity (percentage phytotoxicity) LOLPE POST
[11] = pre-emergence, 480 h, Rate 250 g/ha, pre-emergence, assessed visually 20 DAA, 100%=total damage, 0%=no damage, read-out: Pre-emergence herbicidal activity (percentage phytotoxicity) LOLPE PRE
[12] = post-emergence, 360 h, Rate 250 g/ha, post-emergence, assessed visually 15 DAA, 100%=total damage, 0%=no damage, read-out: Post-emergence herbicidal activity (percentage phytotoxicity) ALOMY POST
[13] = pre-emergence, 480 h, Rate 250 g/ha, pre-emergence, assessed visually 20 DAA, 100%=total damage, 0%=no damage, read-out: Pre-emergence herbicidal activity (percentage phytotoxicity) ALOMY PRE
[14] = post-emergence, 360 h, POST-emergence, rate 250 g/ha, visual score 15 DAA (100%=total damage, 0%=no damage), read-out: Post-emergence herbicidal activity (percentage phytotoxicity) AVEFA POST
[15] = pre-emergence, 480 h, PRE-emergence, rate 250 g/ha, visual score 20 DAA (100%=total damage, 0%=no damage), read-out: Pre-emergence herbicidal activity (percentage phytotoxicity) AVEFA PRE
[16] = post-emergence, 360 h, POST-emergence, rate 250 g/ha, visual score 15 DAA (100%=total damage, 0%=no damage), read-out: Post-emergence herbicidal activity (percentage phytotoxicity) ECHCG POST
[17] = pre-emergence, 480 h, PRE-emergence, rate 250 g/ha, visual score 20 DAA (100%=total damage, 0%=no damage), read-out: Pre-emergence herbicidal activity (percentage phytotoxicity) ECHCG PRE
[18] = post-emergence, 360 h, POST-emergence, rate 250 g/ha, visual score 15 DAA (100%=total damage, 0%=no damage), read-out: Post-emergence herbicidal activity (percentage phytotoxicity) LOLPE POST
[19] = pre-emergence, 480 h, PRE-emergence, rate 250 g/ha, visual score 20 DAA (100%=total damage, 0%=no damage), read-out: Pre-emergence herbicidal activity (percentage phytotoxicity) LOLPE PRE
[20] = post-emergence, 360 h, POST-emergence, rate 250 g/ha, visual score 15 DAA (100%=total damage, 0%=no damage), read-out: Post-emergence herbicidal activity (percentage phytotoxicity) ALOMY POST
[21] = pre-emergence, 480 h, PRE-emergence, rate 250 g/ha, visual score 20 DAA (100%=total damage, 0%=no damage), read-out: Pre-emergence herbicidal activity (percentage phytotoxicity) ALOMY PRE
[22] = post-emergence, 360 h, 250 g/ha, post-emergence, 15 DAA, visual assessment (100%=total damage, 0%=no damage), read-out: Post-emergence herbicidal activity (percentage phytotoxicity) AVEFA POST
[23] = pre-emergence, 480 h, 250 g/ha, pre-emergence, 20 DAA, visual assessment (100%=total damage, 0%=no damage), read-out: Pre-emergence herbicidal activity (percentage phytotoxicity) AVEFA PRE
[24] = post-emergence, 360 h, 250 g/ha, post-emergence, 15 DAA, visual assessment (100%=total damage, 0%=no damage), read-out: Post-emergence herbicidal activity (percentage phytotoxicity) ECHCG POST
[25] = pre-emergence, 480 h, 250 g/ha, pre-emergence, 20 DAA, visual assessment (100%=total damage, 0%=no damage), read-out: Pre-emergence herbicidal activity (percentage phytotoxicity) ECHCG PRE
[26] = post-emergence, 360 h, 250 g/ha, post-emergence, 15 DAA, visual assessment (100%=total damage, 0%=no damage), read-out: Post-emergence herbicidal activity (percentage phytotoxicity) LOLPE POST
[27] = pre-emergence, 480 h, 250 g/ha, pre-emergence, 20 DAA, visual assessment (100%=total damage, 0%=no damage), read-out: Pre-emergence herbicidal activity (percentage phytotoxicity) LOLPE PRE
[28] = post-emergence, 360 h, 250 g/ha, post-emergence, 15 DAA, visual assessment (100%=total damage, 0%=no damage), read-out: Post-emergence herbicidal activity (percentage phytotoxicity) ALOMY POST
[29] = pre-emergence, 480 h, 250 g/ha, pre-emergence, 20 DAA, visual assessment (100%=total damage, 0%=no damage), read-out: Pre-emergence herbicidal activity (percentage phytotoxicity) ALOMY PRE

Row | Compound | pest or weed control at 250 g/ha [2, 14] [%] | pest or weed control at 250 g/ha [2, 15] [%] | pest or weed control at 250 g/ha [3, 16] [%] | pest or weed control at 250 g/ha [3, 17] [%] | pest or weed control at 250 g/ha [4, 18] [%] | pest or weed control at 250 g/ha [4, 19] [%] | pest or weed control at 250 g/ha [5, 20] [%] | pest or weed control at 250 g/ha [5, 21] [%] | pest or weed control at 250 g/ha [2, 22] [%] | pest or weed control at 250 g/ha [2, 23] [%] | pest or weed control at 250 g/ha [3, 24] [%] | pest or weed control at 250 g/ha [3, 25] [%] | pest or weed control at 250 g/ha [4, 26] [%] | pest or weed control at 250 g/ha [4, 27] [%] | pest or weed control at 250 g/ha [5, 28] [%] | pest or weed control at 250 g/ha [5, 29] [%] | other results
1 | Cc1cc(-c2ccc(F)cn2)cc(C)c1C1C(=O)CC(CC(=O)NC(C)(C)C)C1=O (stereo not shown) [Compound A80] |  |  |  |  |  |  |  |  |  |  |  |  |  |  |  |  | Post-emergence Crop Selectivity, percentage phytotoxicity, Wheat +CQC [1]: 20%; Post-emergence Crop Selectivity, percentage phytotoxicity, Wheat − CQC [1]: 70%; pest or weed control at 250 g/ha [2, 6]: 100%; pest or weed control at 250 g/ha [2, 7]: 90%; pest or weed control at 250 g/ha [3, 8]: 100%; pest or weed control at 250 g/ha [3, 9]: 100%; pest or weed control at 250 g/ha [4, 10]: 100%; pest or weed control at 250 g/ha [4, 11]: 100%; pest or weed control at 250 g/ha [5, 12]: 100%; pest or weed control at 250 g/ha [5, 13]: 100%
2 | Cc1cc(C)c(C2C(=O)CC(CC(=O)NC3(c4ccccn4)CC3)C2=O)c(C)c1 (stereo not shown) [Compound A18] |  |  |  |  |  |  |  |  |  |  |  |  |  |  |  |  | Post-emergence Crop Selectivity, percentage phytotoxicity, Wheat +CQC [1]: 20%; Post-emergence Crop Selectivity, percentage phytotoxicity, Wheat − CQC [1]: 70%; pest or weed control at 250 g/ha [2, 6]: 50%; pest or weed control at 250 g/ha [2, 7]: 20%; pest or weed control at 250 g/ha [3, 8]: 70%; pest or weed control at 250 g/ha [3, 9]: 60%; pest or weed control at 250 g/ha [4, 10]: 80%; pest or weed control at 250 g/ha [4, 11]: 60%; pest or weed control at 250 g/ha [5, 12]: 70%; pest or weed control at 250 g/ha [5, 13]: 60%
3 | C/C=C/c1cc(C)c(C2C(=O)CC(CC(=O)NCc3ccc(OC)cc3)C2=O)c(C)c1 (stereo not shown) [Compound B243] | 50 | 0 | 90 | 0 | 70 | 0 | 80 | 0 |  |  |  |  |  |  |  |  | 
4 | Cc1cc(-c2ncc(Cl)cc2F)cc(C)c1C1C(=O)CC(CC(=O)NC2CCCC2)C1=O (stereo not shown) [Compound B125] |  |  |  |  |  |  |  |  | 100 | 40 | 100 | 100 | 100 | 100 | 90 | 80 | 
5 | CCNC(=O)CC1CC(=O)C(c2c(C)cc(-c3ncc(C#N)cn3)cc2C)C1=O (stereo not shown) [Compound B286] | 100 | 90 | 100 | 100 | 100 | 90 | 100 | 100 |  |  |  |  |  |  |  |  | 
6 | CCN(C)C(=O)CC1CC(=O)C(c2c(C)cc(-c3ccc(F)cn3)cc2C)C1=O (stereo not shown) [Compound B392] |  |  |  |  |  |  |  |  |  |  |  |  |  |  |  |  | pest or weed control at 250 g/ha ([2]; post-emergence, 360 h, Rate 250 g/ha, post-emergence, visual assessment 15 DAA, 100%=total damage, 0%=no damage, read-out: Post-emergence herbicidal activity (percentage phytotoxicity) AVEFA POST): 100%; pest or weed control at 250 g/ha ([2]; pre-emergence, 480 h, Rate 250 g/ha, pre-emergence, visual assessment 20 DAA, 100%=total damage, 0%=no damage, read-out: Pre-emergence herbicidal activity (percentage phytotoxicity) AVEFA PRE): 100%; pest or weed control at 250 g/ha ([3]; post-emergence, 360 h, Rate 250 g/ha, post-emergence, visual assessment 15 DAA, 100%=total damage, 0%=no damage, read-out: Post-emergence herbicidal activity (percentage phytotoxicity) ECHCG POST): 100%; pest or weed control at 250 g/ha ([3]; pre-emergence, 480 h, Rate 250 g/ha, pre-emergence, visual assessment 20 DAA, 100%=total damage, 0%=no damage, read-out: Pre-emergence herbicidal activity (percentage phytotoxicity) ECHCG PRE): 100%; pest or weed control at 250 g/ha ([4]; post-emergence, 360 h, Rate 250 g/ha, post-emergence, visual assessment 15 DAA, 100%=total damage, 0%=no damage, read-out: Post-emergence herbicidal activity (percentage phytotoxicity) LOLPE POST): 90%; pest or weed control at 250 g/ha ([4]; pre-emergence, 480 h, Rate 250 g/ha, pre-emergence, visual assessment 20 DAA, 100%=total damage, 0%=no damage, read-out: Pre-emergence herbicidal activity (percentage phytotoxicity) LOLPE PRE): 100%; pest or weed control at 250 g/ha ([5]; post-emergence, 360 h, Rate 250 g/ha, post-emergence, visual assessment 15 DAA, 100%=total damage, 0%=no damage, read-out: Post-emergence herbicidal activity (percentage phytotoxicity) ALOMY POST): 90%; pest or weed control at 250 g/ha ([5]; pre-emergence, 480 h, Rate 250 g/ha, pre-emergence, visual assessment 20 DAA, 100%=total damage, 0%=no damage, read-out: Pre-emergence herbicidal activity (percentage phytotoxicity) ALOMY PRE): 100%
7 | Cc1cc(-c2ncc(F)cc2C#N)cc(C)c1C1C(=O)CC(CC(=O)NC(C)(C)C)C1=O (stereo not shown) [Compound B87] |  |  |  |  |  |  |  |  | 30 | 10 | 80 | 20 | 80 | 70 | 70 | 40 | 
8 | Cc1cc(C)c(C2C(=O)CC(CC(=O)NCC3CC3(F)F)C2=O)c(C)c1 (stereo not shown) [Compound B158] |  |  |  |  |  |  |  |  | 80 | 90 | 80 | 100 | 90 | 100 | 90 | 90 | 
9 | C/C=C/c1cc(C)c(C2C(=O)CC(CC(=O)NCc3ccc(C#N)cc3)C2=O)c(C)c1 (stereo not shown) [Compound B244] | 80 | 0 | 90 | 0 | 60 | 0 | 0 | 0 |  |  |  |  |  |  |  |  | 
